For data set [1], the system named is DU145 human prostate cancer cell line. The experiment in a line: XTT proliferation (cytotoxicity) assay, DU145. Type of data set: cell-based. As for the experimental part: (§1) The CL1 human prostate carcinoma (PC) cell line is an androgen-independent (AI) subclone of LNCaP cell line, which was generated by culturing androgen-dependent (AD) LNCaP cells in charcoal-stripped, […], as described (Patel et al. 2000). 22RV1 human PC cells are AI sub-clones of the AD prostatic adenocarcinoma CWR22 xenograft (Sramkoski et al. 1999). CL1 and 22RV1 (ATCC, USA) were grown in RPMI-1640 supplemented with 10% FCS (Biological Industries, Beit Haemek, Israel). PC3 and DU145 are androgen-insensitive (AI) (non-responsive), invasive human prostate cancer cell lines. NIH-3T3 mouse fibroblast cell lines (ATCC, USA) were grown in DMEM supplemented with 10% BS. Murine Lewis lung carcinoma (LLC) cell lines were also grown in DMEM medium supplemented with 10% fetal calf serum and antibiotics under the same conditions as above.
(§2) The anticancer activity of the diastereomers 1, 5 and 11-16, 36-39, 42 and 44 was examined against human CL1 prostate cancer, murine LLC (Lewis lung carcinoma), DU 145 and PC3 cell lines. The cell selectivity of the diastereomeric peptides was also studied by examining their effect on NIH-3T3 normal mouse fibroblasts cell line.
(§3) A 96-well plate (Falcon) was used for the XTT proliferation assay. Cancer cells were grown for 24 hours (day 1) in RPMI-1640 medium ([…] cells/100 μl for LLC, CL1, 22RVI, DU 145 and PC3, respectively) supplemented with 10% fetal calf serum and antibiotics, at 37° C., in humidified atmosphere at 5% CO2 and 95% air, resulting in growth medium pH of 7.4. NIH-3T3 fibroblast cells (1×10^4 cells/100 μl) were grown in DMEM medium supplemented with 10% bovine calf serum and antibiotics under the same conditions as described above for the cancerous cells. Wells in the last two rows served as blanks (medium only, for measuring the background color of the medium) and 100% survival controls (cells and medium only without treatment), respectively.
(§4) In day 2, the peptides were dissolved in sterile PBS to a concentration of 200 μM (or 500 μM). The medium in the assay wells was replaced with 100 μl serum free medium. For the assays at pH 6, the medium was initially concentrated (×5 or ×10) and then diluted with double distilled water and addition of sodium carbonate. Before reaching the correct dilution, the medium was adjusted to pH 6 and then more water was added to reach the final dilution. The cells were grown in physiological pH, and the acidic pH was used only during the 24 hours incubation with the peptides. A sign for the correct acidity was a light yellow color of the medium. In line A of the plate, 160 μl of serum free medium was added, if the initial peptide concentration was 500 μM.
(§5) Peptide solutions, 100 μl (or 40 μl) were added to each assay well in line A, such that the final concentration of the peptide was […] and the volume 200 μl. The medium in the wells was mixed with multichannel pipette 5 times and 100 μl of it were transferred to the next row of wells (line B), to give a peptide concentration of 50 μM. The double dilution of the peptides continued downstream the plate in the same manner. The plates were then incubated for 24 h.
(§6) In day 3, XTT reaction solution was prepared by adding to 100 μl aliquots of activation solution (sodium 3′-[1-(phenyl-aminocarbonyl)-3,4-tetrazolium]-bis(4-methoxy-6-nitro) benzene sulfonic acid hydrate and N-methyl dibenzopyrazine methyl sulfate; mixed in a proportion of 50:1) (protected from light and kept in −20° C.), the substrate. 50 μl of XTT reaction solution were added to each well and the plates were incubated for 2 hours (37° C. and 5% CO2+95% air. In cases the incubation was not enough for the creation of the color, it was extended for up to 24 hours). The optical density was read at wavelength of 450 nm in an ELISA plate reader. Cell viability was determined relative to the control and final results were recorded. The results were confirmed using replications in at least three independent experiments. […]
A general note: Tetrazolium dyes change colour on reduction, which living cells bring about.

Data set [2] in a line: XTT proliferation (cytotoxicity) assay, normal fibroblasts. Type of data set: cell-based, mouse. To be noted: mouse, NIH-3T3 normal mouse fibroblasts; NIH3T3, pH 6, 24 h; read-out: Lethal Concentration (LC50). The protocol:
as §1, §2, §3, §4, §5, §6

For data set [3], the system named is NIH-3T3 normal mouse fibroblasts cell line. Described as above. Type of data set: cell-based. To be noted: NIH3T3, pH 7.4, 24 h. The protocol: as §1, §2, §3, §4, §5, §6
The test system of data set [4] is pepsin, trypsin, and elastase. Description: Resistance to proteolytic digestion (reverse-phase HPLC). Type of data set: in vitro ADME. To be noted: after 2 hr, 140 μM peptide, 25 μM protease, 37° C. The protocol:
In order to reach their target, the diastereomers have to withstand proteolytic digestion of proteases, which may occur after their administration and during the time until they reach the target site. The susceptibility of the peptides 13 and 14 to proteolytic digestion by pepsin (from porcine stomach mucosa, Sigma), trypsin (from bovine pancreas, Sigma), and elastase (from human leukocytes, Sigma) was assessed by reverse-phase HPLC. As a negative control, the all L-amino acid analog peptides were used. Equal amounts of the peptides were dissolved in PBS (35 mM phosphate buffer/0.15 M NaCl, pH 7.3) at a final concentration of 140 μM, to which 25 μM of protease were added. […] After the addition of the appropriate protease inhibitor to stop the reaction, aliquots were injected to C18 column and the amounts of the intact peptides 13 and 14 and their all L analogs were evaluated using their absorbance at 215 nm.

The test system of data set [5] is CL1 human prostate carcinoma cell line. Description: XTT proliferation (cytotoxicity) assay, CL1. Type of data set: cell-based. As for the experimental part:
as §1, §2, §3, §4, §5, §6

For data set [6], the system named is Murine Lewis lung carcinoma (LLC) cell line. Description: XTT proliferation (cytotoxicity) assay, LLC. Type of data set: cell-based. As for the experimental part:
as §1, §2, §3, §4, §5, §6

Data set [7] deals with PC3 human prostate cancer cell line. Description: XTT proliferation (cytotoxicity) assay, PC3. To be noted: PC3, pH 7.4, 24 h. Type of data set: cell-based. As for the experimental part:
as §1, §2
A 96-well plate (Falcon) was used for the XTT proliferation assay. Cancer cells were grown for 24 hours (day 1) in RPMI-1640 medium (5×10^3, 7×10^3, 1×10^4 and 7×10^3 cells/100 μl for LLC, CL1, 22RVI, DU 145 and PC3, respectively) supplemented with 10% fetal calf serum and antibiotics, at 37° C., in humidified atmosphere at 5% CO2 and 95% air, resulting in growth medium pH of 7.4. […]
In day 3, XTT reaction solution was prepared by adding to 100 μl aliquots of activation solution (sodium 3′-[1-(phenyl-aminocarbonyl)-3,4-tetrazolium]-bis(4-methoxy-6-nitro) benzene sulfonic acid hydrate and N-methyl dibenzopyrazine methyl sulfate; mixed in a proportion of 50:1) (protected from light and kept in −20° C.), the substrate. […] The optical density was read at wavelength of 450 nm in an ELISA plate reader. Cell viability was determined relative to the control and final results were recorded. […]

The test system of the next data set is 22RV1 human PC cells. Description: XTT proliferation (cytotoxicity) assay, 22RV1. Type of data set: cell-based. As for the experimental part:
as §1, §3, §4, §5
In day 3, XTT reaction solution was prepared by adding to 100 μl aliquots of activation solution (sodium 3′-[1-(phenyl-aminocarbonyl)-3,4-tetrazolium]-bis(4-methoxy-6-nitro) benzene sulfonic acid hydrate and N-methyl dibenzopyrazine methyl sulfate; mixed in a proportion of 50:1) (protected from light and kept in −20° C.), the substrate. 50 μl of XTT reaction solution were added to each well and the plates were incubated for 2 hours (37° C. and 5% CO2+95% air. In cases the incubation was not enough for the creation of the color, it was extended for up to 24 hours). The optical density was read at wavelength of 450 nm in an ELISA plate reader. Cell viability was determined relative to the control and final results were recorded. The results were confirmed using replications in at least three independent experiments. The LC50 for each peptide was obtained from the curve of cell viability versus concentration of peptide and taken from the concentration at which cell viability was 50%. The data shown in Table 1 are for only one experiment, but representative of all replications.

Molecules are shown by their SMILES. In brackets after ≈: the same amount, converted by molar mass. Square brackets hold non-standard residues; d marks the D form. Peptide text beside a SMILES is read from it.

With `CC(C)C[C@H](NC(=O)[C@H](CC(C)C)NC(=O)[C@@H](CCCCN)NC(=O)[C@H](CC(C)C)NC(=O)[C@H](CC(C)C)NC(=O)[C@H](Cc1c[nH]cn1)NC(=O)[C@@H](CCCCN)NC(=O)[C@@H](CC(C)C)NC(=O)[C@H](CC(C)C)NC(=O)[C@@H](CCCCN)NC(=O)[C@H](Cc1c[nH]cn1)NC(=O)[C@H](CC(C)C)NC(=O)[C@@H](CC(C)C)NC(=O)[C@H](Cc1c[nH]cn1)NC(=O)[C@@H](N)CC(C)C)C(N)=O` [Peptide 14] (H-LH[dL]LH[dK]L[dL][dK]HLL[dK]LL-NH2), the “Lethal Concentration (LC50)” value in data set [1] (DU145, pH 6, 24 h) turned out to be 9.3 µg/mL; in data set [1] (DU145, pH 7.4, 24 h), 12.5 µg/mL; in data set [3], 100 µg/mL; in data set [5] (CL1, pH 6, 24 h), 12.5 µg/mL; in data set [5] (CL1, pH 7.4, 24 h) it was 12.5 µg/mL; in data set [6] (pH 6, 24 h), 25 µg/mL. Also, the “Lethal Concentration (LC50)” value stood at 50 µg/mL in data set [6] (pH 7.4, 24 h); 18.7 µg/mL in data set [7]; 12.5 µg/mL in the data set on 22RV1 human PC cells (22RV1, pH 6, 24 h); 25 µg/mL in the data set with 22RV1 human PC cells (22RV1, pH 7.4, 24 h). The CC50 at 24 h in data set [2] stood at 25 µg/mL (≈ 13.7 µM). This compound registered a proteases digestion in data set [4] of about 50%. In addition, the “activity compared with peptide 1” value in data set [5] (CL1 and 22RVI, pH 7.4) is “half as active”. For the same compound, the “active concentration lower than against NIH-3T3” value is on record as 8 fold in data set [5] (CL1 vs NIH-3T3, pH 7.4) and “at least two-fold lower” in data set [5] (CL1 vs NIH-3T3 at the same pH).

The values are drawn from US20090305954A1, “HISTIDINE-CONTAINING DIASTEREOMERIC PEPTIDES AND USES THEREOF” (Yeda Research and Development Co. Ltd., priority 2005, published 2009).
